Several values for one entry are separate records, joined by “and”; a condition that tells them apart may be missing. Equal entries are not always repeated. Where two headings read alike, the source gives them in different places.
Legend:
MDA-MB-231 [1] = assay: Clonogenicity (recovery) assay, 72 h post-treatment, SRB; details: for percentage of recovery: 72 h post-treatment; for effect on proliferation and recovery after treatment: in words
MCF-7 [2] = details: for Selectivity index: IC50 MCF-10A / IC50 MCF-7; for percentage of survival: 72 h; for Potency compared to control POD: MCF-7, relative to POD; for Potency compared to control VP-16: MCF-7, relative to VP-16; for IC50: read-out: Cytotoxic activity IC50, MCF-7, 72 h, mean of three independent experiments ± S.D.
MCF-10A [3] = assay: Clonogenicity (recovery) assay, 72 h post-treatment, SRB; details: for percentage of recovery: 0.08 µg/mL, 72 h post-treatment; for effect on proliferation and recovery after treatment: in words
in vitro = details: human
BT-549 [4] = details: for percentage of survival: 72 h; for Potency compared to control POD: BT-549, relative to POD; for Potency compared to control VP-16: BT-549, relative to VP-16; for Selectivity index: IC50 MCF-10A / IC50 BT-549; for IC50: read-out: Cytotoxic activity IC50, BT-549, 72 h, mean of three independent experiments ± S.D.
MDA-MB-231 [5] = details: for Selectivity index: IC50 MCF-10A / IC50 MDA-MB-231; for percentage of survival: 72 h; for Potency compared to control POD: MDA-MB-231, relative to POD; for Potency compared to control VP-16: MDA-MB-231, relative to VP-16; for IC50: read-out: Cytotoxic activity IC50, MDA-MB-231, 72 h, mean of three independent experiments ± S.D.
MCF-7 [6] = assay: Clonogenicity (recovery) assay, 72 h post-treatment, SRB; details: for percentage of recovery: 72 h post-treatment; for effect on proliferation and recovery after treatment: in words
MCF-10A [7] = details: for percentage of survival: 0.08 µg/mL, 72 h; for Potency compared to control POD: relative to POD; for Potency compared to control VP-16: relative to VP-16
BT-549 [8] = assay: Clonogenicity (recovery) assay, 72 h post-treatment, SRB; details: for percentage of recovery: 72 h post-treatment; for effect on proliferation and recovery after treatment: in words
[9] = test system: MCF-7, MDA-MB-231, BT-549, and MCF-10A; assay: Cytotoxicity, clonogenicity and selectivity over the panel of breast cell lines; format: cell-based, human; details: in words, SI ≥ 10 selective
[10] = Water solubility (observation in culture medium); format: physicochemical; details: in words
[11] = test system: human protein tyrosyl-DNA phosphodiesterase 1 (TDP1); parameters: method as in ref 29 = [29]; 29. NCBI, National Center for Biotechnology Information PubChem BioAssay Database 2013 AID=686981 Available online: https://pubchem.ncbi.nlm.nih.gov/bioassay/686981 (accessed on 30 March 2016); details: qHTS, DT40 cell line, in words; cited from earlier work
anthrax lethal toxin = details: qHTS, ME-180 cells, in words; cited from earlier work
[12] = Cytotoxic activity IC50, MCF-10A, 72 h, mean of three independent experiments ± S.D.

Compound	percentage of recovery (MDA-MB-231 [1]; MDA-MB-231, 0.08 µg/mL)	percentage of recovery (MDA-MB-231 [1]; MDA-MB-231, 0.4 µg/mL)	effect on proliferation and recovery after treatment (MDA-MB-231 [1]; MDA-MB-231, 10 and 2 µg/mL)	Selectivity index (MCF-7 [2])	percentage of survival (MCF-7 [2]; MCF-7, 0.08 µg/mL)	Potency compared to control POD (MCF-7 [2])	Potency compared to control VP-16 (MCF-7 [2])	IC50 (MCF-7 [2])	percentage of recovery (MCF-10A [3]; MCF-10A)	effect on proliferation and recovery after treatment (MCF-10A [3]; MCF-10A, 10, 2, and 0.4 µg/mL)	IC50 at 72 h (in vitro; [12]) [nM]	percentage of survival (BT-549 [4]; BT-549, 0.08 µg/mL)	Potency compared to control POD (BT-549 [4])	IC50 (BT-549 [4])	Selectivity index (MDA-MB-231 [5])	percentage of survival (MDA-MB-231 [5]; MDA-MB-231, 0.08 µg/mL)	percentage of survival (MDA-MB-231 [5]; MDA-MB-231, 0.4 µg/mL)	IC50 (MDA-MB-231 [5])	percentage of recovery (MCF-7 [6]; MCF-7, 0.08 µg/mL)	percentage of survival (MCF-10A [7])	also measured
COc1ccc([C@@H]2c3cc4c(c(OC)c3C[C@H]3COC(=O)[C@@H]32)OCO4)cc1OC [Compound 1, 5′-demethoxy-β-peltatin-A-methylether]	184% ± 6.4%	49% ± 18.6%	inhibited proliferation and blocked recovery	0.02	130% ± 18.55%	0.002	0.017	7220 nM and 7200 nM	83% ± 3.3%	dose-dependent cytotoxic effect at concentrations of 10, 2, and 0.4 µg/mL, which persisted after removal of the treatment	130	82% ± 15.7%	0.004	1260 nM and 1200 nM and 1270 nM	0.06	96% ± 6.9%	28% ± 3.1%	2440 nM and 2400 nM	172% ± 24.5%	61% ± 7.9%	Potency compared to control VP-16 (BT-549 [4]): 0.126; Selectivity index (BT-549 [4]): 0.11; Potency compared to control POD (MDA-MB-231 [5]): 0.010; Potency compared to control VP-16 (MDA-MB-231 [5]): 0.016; effect on proliferation and recovery after treatment (MCF-7 [6]; MCF-7, 10, 2, and 0.4 µg/mL): dose-dependent cytotoxic effect at concentrations of 10, 2, and 0.4 µg/mL, which persisted after removal of the treatment; IC50 (MCF-10A [7]; read-out: Cytotoxic activity IC50, 72 h, mean of three independent experiments ± S.D.): 137 ± 15 nM; Potency compared to control POD (MCF-10A [7]): 0.144; Potency compared to control VP-16 (MCF-10A [7]): 0.341; percentage of recovery (BT-549 [8]; BT-549, 0.08 µg/mL): 124% ± 9.7%; effect on proliferation and recovery after treatment (BT-549 [8]; BT-549, 10, 2, and 0.4 µg/mL): dose-dependent cytotoxic effect at concentrations of 10, 2, and 0.4 µg/mL, which persisted after removal of the treatment
COc1cc([C@@H]2c3cc4c(cc3[C@H](O)[C@H]3COC(=O)[C@H]23)OCO4)cc(OC)c1OC [POD, Podophyllotoxin, reference compound]	–	–	–	1.11	–	–	–	18 ± 1 nM	–	–	–	–	–	5 ± 1 nM	0.81	–	–	24 ± 6 nM	–	–	selectivity in the selectivity analysis [9]: non-selective activity; effect on proliferation and recovery after treatment (MDA-MB-231 [1]; MDA-MB-231, different POD concentrations): arrest of cell proliferation, which persisted even after the toxic agent was removed; effect on proliferation and recovery after treatment (MCF-10A [3]; MCF-10A, different POD concentrations): arrest of cell proliferation, which persisted even after the toxic agent was removed; IC50 at 72 h (in vitro): 20 ± 8 nM; effect on proliferation and recovery after treatment (MCF-7 [6]; MCF-7, different POD concentrations): arrest of cell proliferation, which persisted even after the toxic agent was removed; survival (MCF-10A [7]; even at high concentrations (10, 2, 0.4, 0.08, and 0.016 µg/mL)): about 20%; effect on proliferation and recovery after treatment (BT-549 [8]; BT-549, different POD concentrations): arrest of cell proliferation, which persisted even after the toxic agent was removed
COc1cc(C2=C3C(=O)OC[C@@H]3[C@@H](OC(C)=O)c3cc4c(cc32)OCO4)cc(OC)c1OC [Compound 4, 7′,8′-dehydroacetylpodophyllotoxin]	180% ± 13.5%	75% ± 12.2%	inhibitory effect on the survival and recovery	1.32	96% ± 13.5%	0.050	0.351	350 nM and 353 nM	160% ± 21%	–	468 ± 2	74% ± 7.4%	0.086	–	2.90	93% ± 6.9%	57% ± 1.4%	160 nM and 161 nM	177% ± 15.6%	about 55% ± 17.2%	percentage of survival (MCF-7 [2]; MCF-7, 0.4 µg/mL): 21% ± 7.2%; percentage of survival (MCF-7 [2]; MCF-7, 2 µg/mL): 11% ± 7.6%; water solubility [10]: low water solubility; percentage of survival (BT-549 [4]; BT-549, 0.4 µg/mL): 48% ± 8.8%; Potency compared to control VP-16 (BT-549 [4]): 2.6 and 2.604; Selectivity index (BT-549 [4]): 7.62; Potency compared to control POD (MDA-MB-231 [5]): 0.151; Potency compared to control VP-16 (MDA-MB-231 [5]): 0.242; percentage of recovery (MCF-7 [6]; MCF-7, 0.4 µg/mL): 57% ± 14.5%; percentage of recovery (MCF-7 [6]; MCF-7, 2 µg/mL): 29% ± 0.7%; Potency compared to control POD (MCF-10A [7]): 0.042; Potency compared to control VP-16 (MCF-10A [7]): 0.100; percentage of recovery (BT-549 [8]; BT-549, 0.08 µg/mL): 176% ± 18%; percentage of recovery (BT-549 [8]; BT-549, 0.4 µg/mL): 98% ± 27.9%; effect on proliferation and recovery after treatment (BT-549 [8]; BT-549, 10 and 2 µg/mL): inhibitory effect on the survival and recovery
COc1cc([C@@H]2c3cc4c(cc3[C@H](OC(C)=O)[C@H]3COC(=O)[C@H]23)OCO4)cc(OC)c1OC [Compound 2, acetylpodophyllotoxin]	–	36% ± 16.8%	completely inhibited proliferation and prevented recovery	2.42	121% ± 10.8%	0.135	0.942	132 ± 17 nM	85% ± 4.5%	dose-dependently inhibited the proliferation and the recovery of cells	318 ± 12	96% ± 5.5%	0.465	11 ± 4 nM	1.77	101% ± 5.7%	21% ± 0.6%	180 ± 3 nM	209% ± 12.4%	61% ± 7.8%	percentage of recovery (MDA-MB-231 [1]; MDA-MB-231, 0.8 µg/mL): 194% ± 14.7%; percentage of survival (BT-549 [4]; BT-549, 0.4 µg/mL): 61% ± 10.6%; Potency compared to control VP-16 (BT-549 [4]): 14.1 and 14.151; selectivity according to the selectivity criteria (SI ≥ 10 selective) (BT-549 [4]; BT-549 vs MCF-10A, in words): selective compound; Potency compared to control POD (MDA-MB-231 [5]): 0.136; Potency compared to control VP-16 (MDA-MB-231 [5]): 0.217; effect on proliferation and recovery after treatment (MCF-7 [6]; MCF-7, 10, 2, and 0.4 µg/mL): dose-dependently inhibited the proliferation and the recovery of cells; Potency compared to control POD (MCF-10A [7]): 0.062; Potency compared to control VP-16 (MCF-10A [7]): 0.147; percentage of recovery (BT-549 [8]; BT-549, 0.4 µg/mL): around 114% ± 18.5%; percentage of recovery (BT-549 [8]; BT-549, 0.8 µg/mL (same concentrations)): ~191% ± 27.1%; effect on proliferation and recovery after treatment (BT-549 [8]; BT-549, 10 and 2 µg/mL): completely inhibited proliferation and prevented recovery; inhibitory activity against TDP1 [11]: inhibitory activity; effect on anthrax lethal toxin internalization (anthrax lethal toxin): interferes in the internalization process
COc1cc([C@@H]2c3cc4c(cc3[C@@H](O[C@@H]3O[C@@H]5CO[C@@H](C)O[C@H]5[C@H](O)[C@H]3O)[C@H]3COC(=O)[C@H]23)OCO4)cc(OC)c1O [VP-16, etoposide, reference compound]	160% ± 7.4%	98% ± 16.1%	caused inhibition of proliferation and cell recovery	0.38	71% ± 20.7%	–	–	124 ± 26 nM	79% ± 5.1%	did not recover proliferation after treatment	–	67% ± 7.5%	–	160 ± 10 nM	1.20	82% ± 5.6%	48% ± 2.4%	38 ± 4 nM	183% ± 7.4%	46% ± 2.8%	selectivity in the selectivity analysis [9]: non-selective compound; IC50 at 72 h (in vitro; MCF-10A cells, Cytotoxic activity IC50, MCF-10A, 72 h, mean of three independent experiments ± S.D.): 47 ± 9 nM; Selectivity index (BT-549 [4]): 0.29; effect on proliferation and recovery after treatment (MCF-7 [6]; MCF-7, 10, 2, and 0.4 µg/mL): did not recover proliferation after treatment; percentage of recovery (BT-549 [8]; BT-549, 0.08 µg/mL): 101% ± 11.7%; effect on proliferation and recovery after treatment (BT-549 [8]; BT-549, 10, 2, and 0.4 µg/mL): did not recover proliferation after treatment

Source: PMC6274026 (Molecules, 2016)
